Measurements: patent US9232800B2
Marks after values point to notes of the source that are not given here.

Tested on: Meloidogyne incognita nematodes
Assay: Miniaturized greenhouse nematicidal efficacy assay (cucumber seedlings in sand, root gall rating)
[1] = 0.5 ppm, test b, average of triplicate gall ratings (scale 0-3, % root mass galled)
[2] = 1 ppm, test b, average of triplicate gall ratings (scale 0-3, % root mass galled)
[3] = 8 ppm, test b, average of triplicate gall ratings (scale 0-3, % root mass galled)
[4] = 1 ppm, test a, average of triplicate gall ratings (scale 0-3, % root mass galled)
[5] = 0.5 ppm, test a, average of triplicate gall ratings (scale 0-3, % root mass galled)
[6] = 8 ppm, test a, average of triplicate gall ratings (0=0-5%, 1=6-20%, 2=21-50%, 3=51-100% root mass galled), harvest 10 to 12 days after inoculation

| Compound | 8/1/0.5 ppm gall ratings* [1] | 8/1/0.5 ppm gall ratings* [2] | 8/1/0.5 ppm gall ratings* [3] | 8/1/0.5 ppm gall ratings* [4] | 8/1/0.5 ppm gall ratings* [5] | 8/1/0.5 ppm gall ratings* [6] |
| --- | --- | --- | --- | --- | --- | --- |
| Clc1ccc(C2=NOC(c3ccco3)N2)c(Cl)c1 (stereo not shown) [Ia-ix, 3-(2,4-dichlorophenyl)-5-(furan-2-yl)-4,5-dihydro-1,2,4-oxadiazole] | 3.00 | 2.33 | 0.00 | – | – | – |
| Cc1cc(Cl)ccc1C1=NOC(c2ccco2)N1 (stereo not shown) [Ia-iv, 3-(4-chloro-2-methylphenyl)-5-(furan-2-yl)-4,5-dihydro-1,2,4-oxadiazole] | 2.67 | 1.67 | 0.00 | – | – | – |
| Clc1cccc(C2NC(c3cccs3)=NO2)c1 (stereo not shown) [IIa-ii, 5-(3-chlorophenyl)-3-(thiophen-2-yl)-4,5-dihydro-1,2,4-oxadiazole] | 3.00 | 2.33 | 0.33 | – | – | – |
| Abamectin [reference compound] | – | – | – | 1.67^a | – | – |
| c1ccc(C2=NOC(c3cccs3)N2)cc1 (stereo not shown) [Ia-i, 3-phenyl-5-(thiophen-2-yl)-4,5-dihydro-1,2,4-oxadiazole] | 2.67 | 1.67 | 0.00 | 1.33 | 2.33 | 0.00 |
| Clc1ccc(C2=NOC(c3ccco3)N2)cc1 (stereo not shown) [Ia-iii, 3-(4-chlorophenyl)-5-(furan-2-yl)-4,5-dihydro-1,2,4-oxadiazole] | 3.00 | 1.67 | 0.00 | – | – | – |
| Fc1ccc(C2=NOC(c3cccs3)N2)cc1 (stereo not shown) [Ia-v, 3-(4-fluorophenyl)-5-(thiophen-2-yl)-4,5-dihydro-1,2,4-oxadiazole] | 1.67 | 0.00 | 0.00 | – | – | – |
| c1ccc(C2=NOC(c3ccco3)N2)cc1 (stereo not shown) [Ia-ii, 5-(furan-2-yl)-3-phenyl-4,5-dihydro-1,2,4-oxadiazole] | 2.33 | 0.67 | 0.00 | 2.00 | 2.67 | 0.00 |
| Cc1cc(Cl)ccc1C1NC(c2ccco2)=NO1 (stereo not shown) [IIa-iii, 5-(4-chloro-2-methylphenyl)-3-(furan-2-yl)-4,5-dihydro-1,2,4-oxadiazole] | 2.33 | 1.67 | 0.00 | – | – | – |
| Clc1ccc(C2=NOC(c3ccoc3)N2)cc1 (stereo not shown) [Ib-iv, 3-(4-chlorophenyl)-5-(furan-3-yl)-4,5-dihydro-1,2,4-oxadiazole] | 2.67 | 1.33 | 0.00 | – | – | – |
